Reference: US9216997B2, “Tri-heterocyclic derivatives, preparation process and uses thereof” (SHANGHAI DE NOVO PHARMATECH CO LTD., priority 2011, dated 2015)
Read-outs that look alike come from different tables or passages of the source.

Legend:
MV4-11 cell = MV4-11 cell proliferation assay (CellTiter-Glo); type: cell-based, human; conditions: MV4-11 cells, 72 hours, read-out: IC50 inhibiting MV4-11 cell proliferation
Experimental: Test compounds were prepared in 100% DMSO and added to the cells to achieve final concentrations from 0.2 uM to […] (10 concentration points in 3 fold serial dilution). The culture plates were then incubated at 37 C in 5% CO2 for 72 hours.
After 72 hours, the cell morphology was observed under an inverted microscope. Cell viability was then quantified at room temp using a CellTiter-Glo assay (Promega G7571) following the manufacture's instruction. Briefly, a volume of 100 ul Celltiter-Glo reagenet was added to each well to induce cell lysis. After 10 min incubation at RT, a luminescent signal was produced by measuring the amount of ATP. The signal was directly proportional to the number of viable cells present in culture.

[1] = test system: MV4-11 acute myeloid leukemia zenograft tumor model; assay: MV4-11 acute myeloid leukemia xenograft tumor model; type: in vivo, NOD/SCID female mice; conditions: 3 mg/kg, po, qd, 22 days; tumor-bearing NOD/SCID mice
Experimental: Compound C (18 mg) in 22% 2-hydroxypropyl-β=cyclodextrin (60 ml), ultrasonic 15 min to dissolve, an average of 2.14 ml divided into each of the small bottle, reserved 22 bottles for experiment.
6-8 weeks NOD/SCID female mice (18-25 g) were used. Each mouse was inoculated subcutaneously at the right flank with MV4-11 tumor cells (1×10^7) in 0.1 ml of PBS/Matrigel (1:1) for tumor development. The treatments were started when the mean tumor size reached 188 mm^3. The animals were separated even as test and control group randomly, and each group is consisted of 6 tumor-bearing mice. The test articles were orally administered (2.14 ml) to the tumor-bearing mice once a day. The date of tumor cell inoculation is denoted as day 0. The tumor volume was measured every four days, and the animals were scarified at 22 days. Statistical analyses of difference in tumor volume among the groups were evaluated using a one-way ANOVA followed by individual comparisons using Games-Howell (equal variance not assumed).
All data were analyzed using SPSS 17.0. p<0.05 was considered to be statistically significant. The antitumor activities of compounds of disclose are calculated by the formula: T C %=TRTV/CRTV×100%. (TRTV: drug treated group RTV; CRTV: vehicle treated group RTV). Evaluation standard: T/C (%)>40% considered as not effective; T/C (%) 40% considered as effective with P<0.05.

FLT3 = FLT3 (Homo sapiens (Human), UniProt P36888); assay: FLT3 kinase inhibition assay (Caliper mobility shift assay); type: biochemical; conditions: 0.9 nM purified FLT3, 97 uM ATP, 28° C., 60 min; read-out: IC50 inhibiting the FLT3 kinase
Sequence of FLT3 (P36888 27-993): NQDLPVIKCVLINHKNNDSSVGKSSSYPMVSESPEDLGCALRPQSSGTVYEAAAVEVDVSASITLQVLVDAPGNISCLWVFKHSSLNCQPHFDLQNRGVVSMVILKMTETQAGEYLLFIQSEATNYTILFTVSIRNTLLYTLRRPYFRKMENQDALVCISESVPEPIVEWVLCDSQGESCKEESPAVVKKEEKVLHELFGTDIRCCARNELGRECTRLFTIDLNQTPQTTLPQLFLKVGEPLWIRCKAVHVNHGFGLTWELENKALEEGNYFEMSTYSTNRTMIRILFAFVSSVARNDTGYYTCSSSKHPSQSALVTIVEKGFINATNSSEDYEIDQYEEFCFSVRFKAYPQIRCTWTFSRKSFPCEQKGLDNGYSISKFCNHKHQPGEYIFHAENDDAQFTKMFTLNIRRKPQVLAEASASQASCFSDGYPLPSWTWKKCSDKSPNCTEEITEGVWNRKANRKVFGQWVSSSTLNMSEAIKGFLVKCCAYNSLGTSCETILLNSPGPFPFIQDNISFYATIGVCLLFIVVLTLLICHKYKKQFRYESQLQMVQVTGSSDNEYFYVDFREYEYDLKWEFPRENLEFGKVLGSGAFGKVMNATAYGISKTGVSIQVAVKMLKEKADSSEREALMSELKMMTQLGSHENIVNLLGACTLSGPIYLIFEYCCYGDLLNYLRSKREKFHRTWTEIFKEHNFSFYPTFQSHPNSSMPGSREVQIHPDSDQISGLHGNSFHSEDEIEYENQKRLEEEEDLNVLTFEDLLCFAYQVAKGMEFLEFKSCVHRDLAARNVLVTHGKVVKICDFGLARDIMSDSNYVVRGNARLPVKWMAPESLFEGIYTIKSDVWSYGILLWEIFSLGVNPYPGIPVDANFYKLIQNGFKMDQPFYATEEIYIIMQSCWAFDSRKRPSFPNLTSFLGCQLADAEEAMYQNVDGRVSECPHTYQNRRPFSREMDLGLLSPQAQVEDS
Experimental: The average of inhibitory rate of Flt3 kinase and IC50 was determined by a Caliper's mobility shift assay (MSA).
FLT3 is a receptor tyrosine kinase involved in survival and proliferation of leukemic cells. Constitutively activating FLT3 mutations has been found in about 30% of all patients with acute myeloid leukemia (AML). The tested compounds were screened for their ability to inhibit FLT3 kinase activity using Caliper's mobility shift assay (MSA). The assay uses a microfluidic chip to measure the conversion of a fluorescent peptide substrate to a phosphorylated product following separation by electrophoresis.
Data were collected on Caliper and converted into inhibition values. IC50 values were obtained using XLfit graphic program.

| SMILES | IC50 (MV4-11 cell; Homo sapiens) [pM] | IC50 (FLT3) [pM] | IC50 (MV4-11 cell) [pM] | T/C [1] [%] |
| --- | --- | --- | --- | --- |
| CN(C)CCNc1ncc2c(n1)sc1nc(-c3ccc(NC(=O)Nc4cc(C(C)(C)C)on4)cc3)cn12 [Compound 97-1] | 30 |  |  |  |
| CC(C)(C)c1cc(NC(=O)Nc2ccc(-c3cn4c(n3)sc3nc(NCCN5C[C@@H]6C[C@H]5CO6)ncc34)cc2)no1 [Compound 97-3] | 70 |  |  |  |
| CC(C)(C)c1cc(NC(=O)Nc2ccc(-c3cn4c(n3)sc3cc(OCCN5CCOCC5)ccc34)cc2)no1 [Quizartinib, reference compound] | 560 |  |  | 9 |
| CC(C)(C)c1cc(NC(=O)Nc2ccc(-c3cn4c(n3)sc3nc(N5CCOCC5)ncc34)cc2)no1 [compound 8-1] |  | 19000 |  |  |
| CC(C)(C)c1cc(NC(=O)Nc2ccc(-c3cn4c(n3)sc3nc(N5CCC(N6CCOCC6)CC5)ncc34)cc2)no1 [compound 8-6] | 1260 |  |  |  |
| CN(C)CCOc1ccc2c(n1)sc1nc(-c3ccc(NC(=O)Nc4cc(C(C)(C)C)on4)cc3)cn12 [compound 28-2] | 200 | 18000 |  |  |
| CC(C)(C)c1cc(NC(=O)Nc2ccc(-c3cn4c(n3)sc3nc(OCCN5CCNCC5)ccc34)cc2)no1 [compound 28-3] | 400 | 34000 |  |  |
| CN1C[C@@H]2C[C@H]1CN2CCOc1ccc2c(n1)sc1nc(-c3ccc(NC(=O)Nc4cc(C(C)(C)C)on4)cc3)cn12 [compound 28-8] | 200 | 10900 |  |  |
| CC(C)(C)c1cc(NC(=O)Nc2ccc(-c3cn4c(n3)sc3nc(OCC5CCNCC5)ccc34)cc2)no1 [compound 28-9] | 300 | 11000 |  |  |
| CN1CCC(COc2ccc3c(n2)sc2nc(-c4ccc(NC(=O)Nc5cc(C(C)(C)C)on5)cc4)cn23)CC1 [compound 28-10] | 300 | 13000 |  |  |
| CC(C)(C)c1cc(NC(=O)Nc2ccc(-c3cn4c(n3)sc3nc(OCC5CNCCO5)ccc34)cc2)no1 (centres unmarked) [compound 28-12] | 470 |  |  |  |
| CC(C)(C)c1cc(NC(=O)Nc2ccc(-c3cn4c(n3)sc3nc(OCCN5C[C@@H]6C[C@H]5CO6)ccc34)cc2)no1 [compound 28-15] | 50 | 68000 |  |  |
| CC(C)(C)c1cc(NC(=O)Nc2ccc(-c3cn4c(n3)sc3nc(OCC5(NS(C)(=O)=O)CC5)ccc34)cc2)no1 [compound 35-3] | 12900 |  |  |  |
| CC(C)(C)c1cc(NC(=O)Nc2ccc(-c3cn4c(n3)sc3nc(OC[C@@H]5CCCN5)ccc34)cc2)no1 [compound 35-4] | 900 |  |  |  |
| CNC1(COc2ccc3c(n2)sc2nc(-c4ccc(NC(=O)Nc5cc(C(C)(C)C)on5)cc4)cn23)CC1 [compound 39-1] |  | 52000 | 500 |  |
| CC(C)(C)c1cc(NC(=O)Nc2ccc(-c3cn4c(n3)sc3nc(N5CCOCC5)ccc34)cc2)no1 [compound 46] | 800 |  |  |  |
| CC(C)(C)c1cc(NC(=O)Nc2ccc(-c3cn4c(n3)sc3nc(N5CCC(N6CCOCC6)CC5)ccc34)cc2)no1 [compound 89-5] |  | 34000 | 290 |  |

Continued, in another order:

| IC50 (MV4-11 cell; Homo sapiens) [pM] | IC50 (FLT3) [pM] | IC50 (MV4-11 cell) [pM] | SMILES | T/C [1] [%] |
| --- | --- | --- | --- | --- |
| 420 |  |  | CCN(CC)CCNc1ncc2c(n1)sc1nc(-c3ccc(NC(=O)Nc4cc(C(C)(C)C)on4)cc3)cn12 [Compound 97-2] |  |
| 1100 |  |  | CC(C)(C)c1cc(NC(=O)Nc2ccc(-c3cn4c(n3)sc3nc(N5CCNCC5)ncc34)cc2)no1 [compound 8-4] |  |
| 700 |  |  | CC(C)(C)c1cc(NC(=O)Nc2ccc(-c3cn4c(n3)sc3nc(OCCN5CCOCC5)ccc34)cc2)no1 [compound 28-1] |  |
| 400 | 47000 |  | CC(C)(C)c1cc(NC(=O)Nc2ccc(-c3cn4c(n3)sc3nc(OCCCN5CCOCC5)ccc34)cc2)no1 [compound 28-6] |  |
| 300 | 1200 |  | CC(C)(C)c1cc(NC(=O)Nc2ccc(-c3cn4c(n3)sc3nc(OCCN5C[C@@H]6C[C@H]5CN6)ccc34)cc2)no1 [compound 28-7] |  |
| 840 |  |  | CC(C)(C)c1cc(NC(=O)Nc2ccc(-c3cn4c(n3)sc3nc(OCC5CNC5)ccc34)cc2)no1 [compound 28-11] |  |
| 300 |  |  | CN1CCOC(COc2ccc3c(n2)sc2nc(-c4ccc(NC(=O)Nc5cc(C(C)(C)C)on5)cc4)cn23)C1 (centres unmarked) [compound 28-13] |  |
| 30 | 9600 |  | CCN(CC)CCOc1ccc2c(n1)sc1nc(-c3ccc(NC(=O)Nc4cc(C(C)(C)C)on4)cc3)cn12 [compound 28-14] |  |
| 1400 | 38000 |  | CC(C)(C)c1cc(NC(=O)Nc2ccc(-c3cn4c(n3)sc3nc(OCC5(N)CC5)ccc34)cc2)no1 [compound 35-1] |  |
| 520 |  |  | CC(=O)NC1(COc2ccc3c(n2)sc2nc(-c4ccc(NC(=O)Nc5cc(C(C)(C)C)on5)cc4)cn23)CC1 [compound 35-2] |  |
| 200 | 29000 |  | CC(C)(C)c1cc(NC(=O)Nc2ccc(-c3cn4c(n3)sc3nc(NCCN5CCOCC5)ccc34)cc2)no1 [compound 53-1] |  |
| 500 | 43000 |  | CN(CCN1CCOCC1)c1ccc2c(n1)sc1nc(-c3ccc(NC(=O)Nc4cc(C(C)(C)C)on4)cc3)cn12 [compound 53-2] |  |
| 960 |  |  | CC(C)(C)c1cc(NC(=O)Nc2ccc(-c3cn4c(n3)sc3nc(NCC5(N)CC5)ccc34)cc2)no1 [compound 63-1] |  |
| 580 |  |  | CNC1(CNc2ccc3c(n2)sc2nc(-c4ccc(NC(=O)Nc5cc(C(C)(C)C)on5)cc4)cn23)CC1 [compound 63-2] |  |
| 4700 |  |  | CNC1(COc2ccc3c(c2)sc2cc(-c4ccc(NC(=O)Nc5cc(C(C)(C)C)on5)cc4)cn23)CC1 [compound 80] |  |
|  | 10000 | 30 | CN(C)CCNc1ccc2c(n1)sc1nc(-c3ccc(NC(=O)Nc4cc(C(C)(C)C)on4)cc3)cn12 [compound 89-1] |  |
|  | 19000 | 40 | CCN(CC)CCNc1ccc2c(n1)sc1nc(-c3ccc(NC(=O)Nc4cc(C(C)(C)C)on4)cc3)cn12 [compound 89-3] |  |
|  | 28000 | 80 | CC(C)(C)c1cc(NC(=O)Nc2ccc(-c3cn4c(n3)sc3nc(NCCN5C[C@@H]6C[C@H]5CO6)ccc34)cc2)no1 [compound 89-4] |  |
